# Reference: patent US6436913B1, “Use of estramustine phosphate in the treatment of bone metastasis” (Pharmacia & Upjohn Company, priority 2000, dated 2002)
# Experiments:
# [1] = Mutual bioavailability of estramustine phosphate and clodronate: serum AUC0-24h and Cmax in patients; details: for AUC0-24h and Cmax, drug alone versus concomitantly with the other drug / Bioavailability, effect of adding the other drug: patients, clodronate 3200 mg and estramustine phosphate 560 mg daily; for AUC0-24h Estracyt: serum, mean
# Procedure: (§1) The first group of six patients were given 3200 mg daily of clodronate only for four days. On the fifth day the AUC0-24h for the drug was calculated from serum concentrations of repeated blood samples. On the sixth day, 560 mg estramustine phosphate was add per oral to the clodronate treatment for the following four days. On day ten, the AUC0-24h for both drugs was calculated.
# (§2) The second group of six patients were give orally 560 mg daily of estramustine phosphate only for four days. On the fifth day the AUC0-24h for the drug was calculated from serum concentrations of repeated blood samples. On the sixth day, 3200 mg clodronate was added to the estramustine phosphate treatment for the following four days. On day ten, the AUC0-24h for both drugs was calculated. The clodronate was provided as 400 mg capsules, and the estramustine phosphate used was estracyt in 140 mg capsules.
# (§3) The method used in the analysis of the serum estramustine phosphate concentrations measures estrone and is insensitive to any metabolites. The estradiol-related metabolites (estramustine and estradiol) were not analyized in connection with the bioanalysis.
# mouse calvaria = experiment: Bone resorption assay, organ culture with 45Ca-prelabeled mouse calvaria (PTH-stimulated 45Ca release); type: cell-based; details: for Resorption / PTH-stimulated 45Ca release, result in words / Resorption, result in words: present only during preincubation; for Resorption / PTH-stimulated 45Ca release, result in words: then washed away; for Bone resorption (45Ca release), result in words: in vitro mouse calvaria, compound present during culture
# Procedure: This example used the organ culture technique with mouse calvaria.
# The organ culture technique was used with ^45Ca-prelabeled mouse calvaria. The method has been described by Lerner (1987) and Ljunggren et al. (1991). Newborn mice were injected subcutaneously with ^45CaCl (1.5 μCi/animal). After four days their calvaria were dissected, split into quarters and preincubated in phenol red free CMRL 1066 medium supplemented with 0.1% bovine serum albumin and 50 μg/ml gentamicin for 24 hours at 37° C. in a humidified atmosphere of 5% CO2 in air in the presence of indomethacin (1 μmol/l) and 10 nmol/l bovine parathyroid hormone (PTH). After washing the bone pieces, the medium was changed and cultures incubated for three more days in the same medium but without indomethacin in the presence or absence of estramustine phosphate or clodronate. Resorption was measured by assaying the ^45Ca liberated into the medium using a standard technique for liquid scintillation counting. Total ^45Ca was determined after hydrolysing the calvaria in 6 mol/l HCI overnight. Bone resorption was studied in various concentrations of estramustine phosphate and the effect of estramusine phosphate present only during the preincubation stage was checked in order to study its cytotoxcity.
# Results are expressed as mean±SEM, n=5 or 10. Inhibition percentage was calculated as follows
# Inhibition %=^45Ca released control bones (%)−^45Ca released from sample bones (%) ^45Ca released control bones*100
# clinical = details: male, human, serum, oral, 3200 mg
# Procedure: as §1, §2, §3
# [2] = Experiment 2 (compound present only during preincubation), 100 μmol/l, mean±SEM
smiles,measurement,setting,value
"O=P(O)(O)C(Cl)(Cl)P(=O)(O)O [Clodronate, Disodium clodronate]","AUC0-24h and Cmax, drug alone versus concomitantly with the other drug",[1],did not differ significantly
same,"Bioavailability, effect of adding the other drug",[1],no effect
same,inhibition at 0.1 µM,"mouse calvaria; Mus musculus, Experiment 1, 0.1 μmol/l, mean±SEM, n=5 or 10",0.9 ± 1.2%
same,inhibition at 1 µM,"mouse calvaria; Mus musculus, Experiment 1, 1 μmol/l, mean±SEM, n=5 or 10",3.5 ± 4.2%
same,inhibition at 10 µM,"mouse calvaria; Mus musculus, Experiment 1, 10 μmol/l, mean±SEM, n=5 or 10",28.3 ± 3.8%
same,inhibition at 100 µM,"mouse calvaria; Mus musculus, Experiment 1, 100 μmol/l, mean±SEM, n=5 or 10",51.4 ± 1.9%
same,inhibition at 1000 µM,"mouse calvaria; Mus musculus, Experiment 1, 1000 μmol/l (precipitate noted for estramustine phosphate), mean±SEM",25.7 ± 6.6%
same,inhibition at 100 µM,"mouse calvaria; Mus musculus, Experiment 2 (compound present only during preincubation), 100 μmol/l, mean±SEM",55.9 ± 0.5%
same,"Resorption / PTH-stimulated 45Ca release, result in words",mouse calvaria,also inhibits resorption
same,AUC(0-t),clinical,19300 ng·h/mL
same,Cmax,clinical,1580 ng/mL
"C[C@]12CC[C@@H]3c4ccc(OC(=O)N(CCCl)CCCl)cc4CC[C@H]3[C@@H]1CC[C@@H]2OP(=O)([O-])[O-].[Na+].[Na+] [Estramustine phosphate, Estramustine phosphate sodium]",AUC0-24h Estracyt,[1]; Estracyt 560 mg daily concomitantly with Clodronate 3200 mg,84.74 µM·h
same,AUC0-24h Estracyt,"[1]; Estracyt only, 560 mg daily orally",47.38 µM·h
same,"AUC0-24h and Cmax, drug alone versus concomitantly with the other drug",[1],differed statistically
same,"Bioavailability, effect of adding the other drug",[1],almost doubled
same,45Ca-release (%),"mouse calvaria; Experiment 1, 0.01 μmol/l, mean±SEM",51.5 ± 3.0%
same,Inhibition %,"mouse calvaria; Experiment 1, 0.01 μmol/l, mean±SEM, n=5 or 10",5.5 ± 5.5%
same,45Ca-release (%),"mouse calvaria; Experiment 1, 0.1 μmol/l, mean±SEM",50.6 ± 1.6%
same,Inhibition %,"mouse calvaria; Experiment 1, 0.1 μmol/l, mean±SEM, n=5 or 10",7.2 ± 2.9%
same,45Ca-release (%),"mouse calvaria; Experiment 1, 1 μmol/l, mean±SEM",55.4 ± 2.9%
same,Inhibition %,"mouse calvaria; Experiment 1, 1 μmol/l, mean±SEM, n=5 or 10",2.0 ± 5.4%
same,45Ca-release (%),"mouse calvaria; Experiment 1, 10 μmol/l, mean±SEM",34.7 ± 3.1%
same,Inhibition %,"mouse calvaria; Experiment 1, 10 μmol/l, mean±SEM, n=5 or 10",34.7 ± 3.1%
same,45Ca-release (%),"mouse calvaria; Experiment 1, 100 μmol/l, mean±SEM",16.7 ± 0.2%
same,Inhibition %,"mouse calvaria; Experiment 1, 100 μmol/l, mean±SEM, n=5 or 10",65.3 ± 2.3%
same,Inhibition %,"mouse calvaria; Experiment 1, 1000 μmol/l (precipitate noted for estramustine phosphate), mean±SEM",55.9 ± 0.6%
same,45Ca-release (%),"mouse calvaria; Experiment 1, 1000 μmol/l (precipitate), mean±SEM",24.0 ± 2.2%
same,Inhibition %,"mouse calvaria; Experiment 2 (compound present only during preincubation), 10 μmol/l, mean±SEM",−17.9 ± 8.7%
same,45Ca-release (%),mouse calvaria; [2],11.9 ± 0.6%
same,Inhibition %,mouse calvaria; [2],70.4 ± 1.4%
same,"Bone resorption (45Ca release), result in words",mouse calvaria,inhibited bone resorption in this in vitro model concentration-dependently and about as effectively as clodronate
same,"Bone resorption (45Ca release), result in words",mouse calvaria; listed as estramustine phosphate sodium,dose-dependently inhibited
same,"Resorption / PTH-stimulated 45Ca release, result in words",mouse calvaria,PTH could not stimulate ^45Ca release from bones
same,"Resorption, result in words",mouse calvaria; 10 μmol/l,slightly increased
same,"Resorption, result in words",mouse calvaria; 100 μmol/l,strongly inhibited
